Test results as given in patent publication US20100144591A1, “BENZIMIDAZOLE DERIVATIVES AND METHODS OF USE THEREOF” (Schering Corporation, priority 2007, published 2010).

Test system: STZ-induced type 2 diabetic mice
Assay: In vivo effect on glucose levels in diabetic mice
Settings: 10 mg/kg/day in diet; relative to control mice and mice treated with rosiglitazone (5 mg/kg/day in diet)
Description: The leftmost black solid bar represents diabetic control mice, the second from left black solid bar represents mice treated for one week with rosiglitazone at 5 mg/kg/day; the third from left black solid bar represents mice treated for one week with Compound 174 at 10 mg/kg/day; the fourth from left black solid bar represents mice treated for one week with Compound 174 at 1 mg/kg/day; and the white bar represents nondiabetic control mice. The y-axis indicates non-fasting glucose levels (mg/dl).
Five-week-old male ICR mice were purchased from Taconic Farm (Germantown, N.Y.) and placed on a “western diet” containing 45% (kcal) fat from lard and 0.12% (w/w) cholesterol. After 3 weeks of feeding, the mice were injected once with low dose streptozocin (STZ, ip 75-100 mg/kg) to induce partial insulin deficiency. […] The diabetic mice were then placed in one of groups: (1) a non-treated diabetic control group, (2) a group treated with rosiglitazone (5 mg/kg/day in diet); (3) a group treated with Compound 174(10/mg/kg in diet) for four weeks; and (4) a group treated with Compound 174 (1/mg/kg in diet) for four weeks.

For `Nc1cc(CN2CCC(C(=O)N3CCC(n4c(-c5ccc(F)c(F)c5)nc5cccnc54)CC3)CC2)ccn1` [Compound 174], the HbA1C levels was “significantly reduced” and the non-fasting glucose levels was “significantly reduced”.
